Results taken from ChEMBL document CHEMBL4665629, “An optimised series of substituted N-phenylpyrrolamides as DNA gyrase B inhibitors” (Eur J Med Chem, 2019).
In brackets after ≈: the same amount, converted by molar mass.

Assays:
Format in all cases: functional
Staphylococcus aureus [1] = assay: Antibacterial activity against Staphylococcus aureus ATCC 29213 assessed as minimum inhibitory concentration required for >=90% inhibition of bacterial growth by CLSI protocol based broth microdilution assay
Klebsiella pneumoniae [2] = assay: Antibacterial activity against Klebsiella pneumoniae ATCC 10031 assessed as minimum inhibitory concentration required for >=90% inhibition of bacterial growth in presence of phenylalanine-arginine beta-naphthylamide by CLSI protocol based broth microdilution assay
Staphylococcus aureus [3] = assay: Antibacterial activity against Staphylococcus aureus ATCC 29213 assessed as bacterial growth inhibition at 50 uM incubated for 24 hrs by CLSI protocol based broth microdilution assay relative to control
Staphylococcus aureus [4] = assay: Antibacterial activity against methicillin-resistant and vancomycin-intermediate Staphylococcus aureus ATCC 700699 assessed as minimum inhibitory concentration required for >=90% inhibition of bacterial growth by CLSI protocol based broth microdilution assay
Klebsiella pneumoniae [5] = assay: Antibacterial activity against wild type Klebsiella pneumoniae ATCC 10031 harboring GyrA S83F/D87G and ParC S80I mutants assessed as minimum inhibitory concentration required for >=90% inhibition of bacterial growth in presence of 10 ug/ml phenylalanine-arginine beta-naphthamide
Klebsiella pneumoniae [6] = assay: Antibacterial activity against wild type Klebsiella pneumoniae ATCC 10031 harboring GyrA S83Y mutant assessed as minimum inhibitory concentration required for >=90% inhibition of bacterial growth in presence of 10 ug/ml phenylalanine-arginine beta-naphthamide
Escherichia coli [7] = assay: Antibacterial activity against Escherichia coli MG1655 harboring […]/D87N and ParC S80I mutants assessed as minimum inhibitory concentration required for >=90% inhibition of bacterial growth in presence of 50 ug/ml phenylalanine-arginine beta-naphthylamide
Staphylococcus aureus [8] = assay: Antibacterial activity against methicillin-resistant Staphylococcus aureus ATCC 43300 assessed as minimum inhibitory concentration required for >=90% inhibition of bacterial growth in presence of 50% inactivated human serum by CLSI protocol based broth microdilution assay
Escherichia coli [9] = assay: Antibacterial activity against Escherichia coli ATCC 25922 assessed as minimum inhibitory concentration required for >=90% inhibition of bacterial growth in presence of phenylalanine-arginine beta-naphthylamide by CLSI protocol based broth microdilution assay
Streptococcus pyogenes = assay: Antibacterial activity against Streptococcus pyogenes ATCC 19653 assessed as minimum inhibitory concentration required for >=90% inhibition of bacterial growth by CLSI protocol based broth microdilution assay
Enterococcus faecium [10] = assay: Antibacterial activity against vancomycin-resistant Enterococcus faecium ATCC 700221 assessed as minimum inhibitory concentration required for >=90% inhibition of bacterial growth by CLSI protocol based broth microdilution assay
Escherichia coli [11] = assay: Antibacterial activity against Escherichia coli MG1655 harboring […] mutant assessed as minimum inhibitory concentration required for >=90% inhibition of bacterial growth in presence of 50 ug/ml phenylalanine-arginine beta-naphthylamide
Klebsiella pneumoniae [12] = assay: Antibacterial activity against wild type Klebsiella pneumoniae ATCC 10031 harboring GyrA S83F/D87G and ParC S80I/E84G mutants assessed as minimum inhibitory concentration required for >=90% inhibition of bacterial growth in presence of 10 ug/ml phenylalanine-arginine beta-naphthamide
Enterococcus faecium [13] = assay: Antibacterial activity against Enterococcus faecium ATCC 35667 assessed as minimum inhibitory concentration required for >=90% inhibition of bacterial growth by CLSI protocol based broth microdilution assay

How did the MIC (Staphylococcus aureus [1]) turn out when `CCn1cc(C(=O)O)c(=O)c2ccc(NC(=O)c3[nH]c(C)c(Cl)c3Cl)cc21` was run?
Its MIC is 0.78 µM (≈ 0.318 µg/mL).

And the MIC (Klebsiella pneumoniae [2])?
Its MIC is > 32 µM.

And the inhibition at 50 µM (Staphylococcus aureus [3])?
Its inhibition at 50 µM is 100%.

And the MIC (Staphylococcus aureus [4])?
Its MIC is 2.5 µM (≈ 1.02 µg/mL).

What about the MIC (Klebsiella pneumoniae [5]) of the same compound?
The MIC was 1.2 µM.

What about the MIC (Klebsiella pneumoniae [6]) of the same compound?
The MIC was 1.2 µM.

What about the MIC (Escherichia coli [7]) of the same compound?
The MIC was 2.5 µM.

And the MIC (Staphylococcus aureus [8])?
The MIC was 32 µM.

And the MIC (Escherichia coli [9])?
The MIC was 2.3 µM.

And the MIC (Streptococcus pyogenes)?
The MIC was 0.72 µM (≈ 0.294 µg/mL).

What about the MIC (Enterococcus faecium [10]) of the same compound?
Its MIC is 0.72 µM (≈ 0.294 µg/mL).

And the MIC (Escherichia coli [11])?
Its MIC is 2.5 µM.

What about the MIC (Klebsiella pneumoniae [12]) of the same compound?
The MIC was 1.2 µM.

And the MIC (Enterococcus faecium [13])?
Its MIC is 1.56 µM (≈ 0.637 µg/mL).
